pEC50, pIC50: −log10 of the molar value. Calls of active or inactive are those of the source.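 How the source made its calls: active means compounds giving half or more protection of infected cells from virus-caused growth loss, again on retest; inactive means the rest.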 Where a SMILES comes first, the peptide text is derived from it. The star is where a group is joined. Bn = c1ccc(C*)cc1
Test system: CEM cells HIV-1 protection, formazan growth assay
Experiment: NCI AIDS Antiviral Assay
Details: for pIC50: measured here: growth of uninfected CEM cells
Method in brief: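 Human CEM cells, uninfected and HIV-1-infected, exposed to five drug concentrations; growth measured by soluble formazan assay and scored as percent protection from infection, with protecting compounds retested.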

Structure (SMILES) | outcome | pEC50 | pIC50
O=C1OC(=O)C2C3C=CC(C12)C1C2C=CC2C31 (stereo unspecified) | inactive |  | 
COC(=O)C(=O)C(C(=O)C(=O)Nc1ccccc1C(C)=O)c1nc2ccc(C(=O)c3ccccc3)cc2[nH]c1=O (stereo unspecified) |  | < 4.03 | 4.26
CC(=O)C1C(=O)C(=O)N(CCN2C(=O)C(=O)C(C(C)=O)C2=O)C1=O (stereo unspecified) |  | < 4.95 | < 4.95
O=S(=O)(O)c1cccc(N=Nc2cc(S(=O)(=O)O)c3cccnc3c2O)c1 |  | < 3.26 | < 3.26
Cc1nc(N)c2c(n1)C(C)N(C(=O)c1ccccc1)C2 (stereo unspecified) |  | < 3.87 | < 3.87
COc1cc2c(cc1OC)CC(=O)Nc1cc(OC)c(OC)cc1CC2 | inactive |  | 
Cc1cccc2c1[C@]13OC(C)[C@]4(C)CC5OC(=O)[C@@]1(C)[C@@H]5[C@]34C(=O)O2 (stereo partly specified) |  | < 3.70 | < 3.70
CCCC(O)c1cn(-c2cccc(S(=O)(=O)O)c2)nn1 (stereo unspecified) |  | < 3.08 | < 3.08
CCCCCCOc1ccc(C(=O)NO)cc1 |  | < 3.70 | 4.88
CCCCCCCC(=O)OC[C@@H](C[As](=O)(O)O)OC(=O)CCCCCCC |  | < 3.70 | 5.03
CCN(CC)C(=S)SS(=O)(=O)c1ccc([N+](=O)[O-])cc1 |  | < 3.70 | 4.72
CC(=O)NC1=CC(=O)C=C(Cl)C1=O |  | < 3.70 | 4.49
CN1CCCC2[C@@H]3CCC4=C(O)C(=O)CC[C@]4(C)C3CC[C@@]21C (stereo partly specified) |  | < 4.13 | < 4.13
O=C(O)CC(c1ccccc1)c1ccccc1 |  | < 3.10 | 3.36
CC1(CC2=C(Br)CCCC2)C(=O)CC=C1O (stereo unspecified) |  | < 3.70 | 3.76
COc1cccc(/C=C2\CCc3ccccc3C2=O)c1 |  | < 4.84 | < 4.84
COc1ccc2nc(NC(=O)C(=O)C(C#N)c3ccc(CC#N)cc3)sc2c1 (stereo unspecified) | inactive |  | 
CNC(=O)C(CC(C)C)NC(=O)CNC(=O)C(Cc1ccc(OCc2ccccc2)cc1)NC(=O)C(COCc1ccccc1)NC(C)=O (stereo unspecified) (Ac-S(Bn)Y(Bn)GL-NHMe; configuration not given here) |  | < 3.70 | 4.43
CCOC(=O)/C(=N/Nc1ccc(Cl)cc1)N1C(=S)C=C(C)NN(C)C1=S |  | < 3.70 | < 3.70
CCSc1nnc(Sc2c3ccccc3nc3ccccc23)s1 |  | < 3.70 | 5.55
CC(=O)OC1CSc2ccccc2N(C(C)=O)C1 (stereo unspecified) |  | < 3.45 | < 3.45

Structure (SMILES) | outcome | pEC50 | pIC50
Cc1cn(C2CC(O)C(CO[Si](C)(C)C(C)(C)C)OC2OC(C)C)c(=O)[nH]c1=O (stereo unspecified) |  | < 3.70 | 4.43
c1ccc(Cc2ccc(SSc3ccc(Cc4ccccc4)cc3)cc2)cc1 |  | < 3.70 | 4.57
CCCC(/C=N/N=C(N)N)=N\N=C(N)N |  | < 4.08 | < 4.08
O=c1[nH]c2cc(Cl)ccc2c2ccc(Cl)cc12 |  | < 3.70 | < 3.70
CC/C=N\N=C(N)N |  | < 3.70 | 4.52
COC(=O)C(CC(=O)c1cc2c(cc1I)OCO2)Cc1cc(OC)c(OC)c(OC)c1I (stereo unspecified) |  | < 4.83 | < 4.83
O=c1[nH]c(NCCCCCO)nc2nc[nH]c12 |  | < 3.70 | < 3.70
O=C1C2C3C=C4c5ccccc5N(c5ccccc5)C4(C2C(=O)N1c1ccc([N+](=O)[O-])cc1)[C@H]1C(=O)N(c2ccc([N+](=O)[O-])cc2)C(=O)[C@@H]31 (stereo partly specified) |  | < 4.96 | < 4.96
N#CC(c1ccc(Cl)cc1)c1cccc(Cl)n1 (stereo unspecified) |  | < 4.15 | < 4.15
CCOC(=O)C(CCc1ccccn1)C(C)=O (stereo unspecified) |  | < 3.70 | < 3.70
COc1ccc(N=C(CS(=O)c2ccc(C)cc2)C(F)(F)F)cc1 (stereo unspecified) |  | < 3.70 | 4.04
NNC(=O)C1CCC(=O)N1S(=O)(=O)c1ccccc1 (stereo unspecified) | inactive |  | 
CC[C@@H]1C[C@H]2CC3c4[nH]c5ccc(O)cc5c4CCN(C2)C31 |  | < 3.43 | 4.03
CCOP(=O)(O)C(Nc1ccc(N=Nc2ccccc2)cc1)c1ccc(C(Nc2ccc(N=Nc3ccccc3)cc2)P(=O)(O)OCC)cc1 (stereo unspecified) |  | < 4.09 | 4.52
CC1=C(O)/C(=C/C(C)CCC/C(C)=C/C=C/C(C)CCCc2ccoc2)OC1=O (stereo unspecified) | inactive |  | 
COc1ccc(N=C2SCC(=O)N2NC(=O)CN2C(=O)c3ccccc3C2=O)cc1 |  | < 4.69 | 4.76
CCCc1cc(=O)oc2c3c(c4c(c12)OC(C)(C)C=C4)O[C@H](C)[C@H](C)[C@@H]3O |  | < 4.06 | 5.19
O=C(Nc1ccccc1S)OCc1ccccc1 |  | 4.46 | 4.33
CCOC(=O)c1ccc(CSc2ccc(OC)cc2)c([N+](=O)[O-])c1 |  | < 3.99 | 4.72
C/C=C\CCC1CCCCN(C(=O)OC(C)(C)C)C1OCC (stereo unspecified) |  | < 3.80 | < 3.80
O=C(/C=C/c1ccccc1)Oc1cccc(Br)c1 |  | < 3.70 | 4.75

Structure (SMILES) | outcome | pEC50 | pIC50
CC(C)C(NC(=O)C(Cc1ccccc1)NC(=O)[C@H]1CCC[C@H]1NC(=O)C(Cc1ccc(OC(C)(C)C)cc1)NC(=O)OC(C)(C)C)C(N)=O (stereo partly specified) |  | < 3.70 | 4.53
COc1ccc(CN2CCCN(/N=C/c3c4c(O)c5c(O)c(C)c6c(c5c3O)C(=O)C(C)(O/C=C/C(OC)C(C)C(OC(C)=O)C(C)C(O)C(C)C(O)C(C)/C=C/C=C(C)C(=O)N4)O6)CC2)cc1 (stereo unspecified) |  | < 3.70 | 4.92
COc1ccc2c(-c3cc4ccccc4o3)cc(=O)oc2c1 | inactive |  | 
O=c1c2ccccc2oc2cc(Br)ccc12 |  | < 4.58 | < 4.58
CCN(CC)/[N+]([O-])=N/OCOC(C)=O |  | < 3.70 | 3.99
C/C(=N\NC(N)=O)c1ccccc1 | inactive |  | 
COc1ccc(S(=O)(=O)N/N=C/CN2C(=O)c3ccccc3C2=O)cc1 |  | < 3.87 | < 3.87
O=C[C@@H](CO)O[C@H](C=O)c1c[nH]c(=O)[nH]c1=O |  | < 2.99 | 3.97
CO/C(=N\N=C\c1cc(OC)ccc1OC)c1ccncc1 |  | < 4.62 | < 4.62
O=c1oc2cccc(O)c2c(O)c1Cc1ccccc1 |  | < 3.70 | < 3.70
C/C=C(\C1CC2c3[nH]c4ccccc4c3CCN2C(=O)C1C(=O)OCC)[Si](C)(C)C (stereo unspecified) |  | < 4.91 | < 4.91
NC(CCSCc1ccccc1)P(=O)(O)O (stereo unspecified) |  | < 3.70 | < 3.70
O=c1c(Cl)c2cc3c(cc2c2ccccc12)nc1cccnc1n3C1CCCCC1 |  | < 4.40 | < 4.40
CNC(=O)N(CCC#N)CCCN(C(=O)NC)c1ccccc1 |  | < 3.70 | < 3.70
COc1ccc2c(c1)[n+]([O-])c(-c1ccc([N+](=O)[O-])cc1)c(N)[n+]2[O-] | inactive |  | 
c1cc2cc(Cc3ccc4[nH]ccc4c3)ccc2[nH]1 |  | < 3.70 | 4.51
CNc1ccc(Cl)cc1S(=O)(=O)c1ccc([N+](=O)[O-])cc1 |  | < 3.70 | < 3.70
Cc1cc2ccc3c(c2oc1=O)[C@@H](OC(=O)C12CCC(C)(C(=O)O1)C2(C)C)[C@@H](OC(=O)C12CCC(C)(C(=O)O1)C2(C)C)C(C)(C)O3 (stereo partly specified) |  | 6.68 | 4.73
c1ccc2c(c1)oc1cc3c(cc12)ncc1cccn13 |  | < 3.70 | < 3.70
CCN1CC2(COC)C(O)CC(OC)C34C5CC6(O)C(O)C5C(O)(C(O)C6OC)C(C(OC)C23)C14 (stereo unspecified) |  | < 3.70 | < 3.70

Reference: PubChem BioAssay AID179 (DTP/NCI, 2004)
